For orientation: DC50 means the midpoint of the concentration-degradation curve. Usually Dmax stands for the largest share of the target that was removed.

In assay [1] the target is T1, SMARCA4-HiBiT (Homo sapiens, UniProt P51532).
T1 construct: SMARCA4-HiBiT knock-in Hela monoclonal cell (CS3023226); host or cells: HeLa monoclonal knock-in line (CRISPR HiBiT knock-in at the endogenous locus, heterozygous)
In words: SMARCA4 HiBiT degradation assay in HeLa cells. It counts as cell-based. The note with it: 18 hours incubation; for DC50: read-out: HeLa-HiBit-SM4 DC50; for Dmax: HeLa, read-out: HeLa-HiBit-SM4 Dmax (%). The essentials:
(§1)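 HeLa monoclonal lines with heterozygous HiBiT knock-in were seeded at 2500 cells/well in EMEM with 10% FBS and treated with compound for 18 h at 37 °C. Remaining tagged protein was measured by Nano-Glo HiBiT lytic luminescence after 30–60 min at RT, and values came from curve fitting.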
In general terms: The HiBiT peptide binds its large partner to form an active luciferase.

The target in assay [2] is T2, SMARCA2-HiBiT (Homo sapiens, UniProt P51531).
T2 construct: SMARCA2-HiBiT knock-in Hela monoclonal cell (CS302366); host or cells: HeLa monoclonal knock-in line (CRISPR HiBiT knock-in at the endogenous locus, heterozygous)
T2 sequence (P51531 whole entry): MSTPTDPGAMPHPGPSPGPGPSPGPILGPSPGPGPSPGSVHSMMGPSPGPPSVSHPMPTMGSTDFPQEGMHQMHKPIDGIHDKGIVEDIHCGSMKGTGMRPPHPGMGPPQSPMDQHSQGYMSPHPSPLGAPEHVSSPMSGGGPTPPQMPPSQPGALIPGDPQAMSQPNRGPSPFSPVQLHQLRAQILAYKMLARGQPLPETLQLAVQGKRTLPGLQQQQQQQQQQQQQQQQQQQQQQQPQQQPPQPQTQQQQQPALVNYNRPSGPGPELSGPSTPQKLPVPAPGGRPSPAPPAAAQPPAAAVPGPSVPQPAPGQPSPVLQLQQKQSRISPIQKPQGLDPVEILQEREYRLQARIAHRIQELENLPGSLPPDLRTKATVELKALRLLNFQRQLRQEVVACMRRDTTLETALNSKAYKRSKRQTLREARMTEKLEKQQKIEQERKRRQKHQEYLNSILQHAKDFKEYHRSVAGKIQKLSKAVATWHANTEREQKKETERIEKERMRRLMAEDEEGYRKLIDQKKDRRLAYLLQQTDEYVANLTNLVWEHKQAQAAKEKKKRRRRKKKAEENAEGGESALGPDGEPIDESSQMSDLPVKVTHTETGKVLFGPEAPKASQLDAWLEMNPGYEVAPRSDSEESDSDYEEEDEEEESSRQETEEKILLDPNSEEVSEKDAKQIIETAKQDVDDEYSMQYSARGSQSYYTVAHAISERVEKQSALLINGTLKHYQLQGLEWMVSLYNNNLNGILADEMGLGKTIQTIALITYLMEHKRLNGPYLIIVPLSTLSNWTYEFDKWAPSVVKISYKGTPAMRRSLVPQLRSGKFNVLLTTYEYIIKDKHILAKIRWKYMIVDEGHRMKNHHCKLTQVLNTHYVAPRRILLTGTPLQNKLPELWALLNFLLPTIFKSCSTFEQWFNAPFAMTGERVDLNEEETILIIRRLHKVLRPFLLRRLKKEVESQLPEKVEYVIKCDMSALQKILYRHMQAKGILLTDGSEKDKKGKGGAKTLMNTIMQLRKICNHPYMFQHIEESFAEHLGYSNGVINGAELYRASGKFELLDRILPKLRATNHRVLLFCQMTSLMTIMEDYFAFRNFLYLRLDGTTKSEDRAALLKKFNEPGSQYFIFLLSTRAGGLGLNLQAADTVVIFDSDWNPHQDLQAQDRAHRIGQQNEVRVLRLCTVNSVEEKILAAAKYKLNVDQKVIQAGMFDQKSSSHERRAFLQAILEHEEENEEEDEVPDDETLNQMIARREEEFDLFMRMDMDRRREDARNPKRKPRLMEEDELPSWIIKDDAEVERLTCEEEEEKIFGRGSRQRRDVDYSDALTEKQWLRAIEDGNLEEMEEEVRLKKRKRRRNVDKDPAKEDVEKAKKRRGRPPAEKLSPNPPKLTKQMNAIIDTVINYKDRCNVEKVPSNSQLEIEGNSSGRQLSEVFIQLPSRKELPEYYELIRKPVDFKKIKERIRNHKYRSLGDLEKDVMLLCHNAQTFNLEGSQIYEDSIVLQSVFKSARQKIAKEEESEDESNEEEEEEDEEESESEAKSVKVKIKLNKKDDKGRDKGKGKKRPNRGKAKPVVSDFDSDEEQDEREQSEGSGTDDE
In words: SMARCA2 HiBiT degradation assay in HeLa cells. The class given is cell-based. The note with it: 18 hours incubation; for DC50: read-out: HeLa_HiBit-SM2 DC50; for Dmax: HeLa, read-out: HeLa-HiBit-SM2 Dmax (%). The essentials:
as §1

Each structure is given as a SMILES string.

T1 sequence (P51532 whole entry): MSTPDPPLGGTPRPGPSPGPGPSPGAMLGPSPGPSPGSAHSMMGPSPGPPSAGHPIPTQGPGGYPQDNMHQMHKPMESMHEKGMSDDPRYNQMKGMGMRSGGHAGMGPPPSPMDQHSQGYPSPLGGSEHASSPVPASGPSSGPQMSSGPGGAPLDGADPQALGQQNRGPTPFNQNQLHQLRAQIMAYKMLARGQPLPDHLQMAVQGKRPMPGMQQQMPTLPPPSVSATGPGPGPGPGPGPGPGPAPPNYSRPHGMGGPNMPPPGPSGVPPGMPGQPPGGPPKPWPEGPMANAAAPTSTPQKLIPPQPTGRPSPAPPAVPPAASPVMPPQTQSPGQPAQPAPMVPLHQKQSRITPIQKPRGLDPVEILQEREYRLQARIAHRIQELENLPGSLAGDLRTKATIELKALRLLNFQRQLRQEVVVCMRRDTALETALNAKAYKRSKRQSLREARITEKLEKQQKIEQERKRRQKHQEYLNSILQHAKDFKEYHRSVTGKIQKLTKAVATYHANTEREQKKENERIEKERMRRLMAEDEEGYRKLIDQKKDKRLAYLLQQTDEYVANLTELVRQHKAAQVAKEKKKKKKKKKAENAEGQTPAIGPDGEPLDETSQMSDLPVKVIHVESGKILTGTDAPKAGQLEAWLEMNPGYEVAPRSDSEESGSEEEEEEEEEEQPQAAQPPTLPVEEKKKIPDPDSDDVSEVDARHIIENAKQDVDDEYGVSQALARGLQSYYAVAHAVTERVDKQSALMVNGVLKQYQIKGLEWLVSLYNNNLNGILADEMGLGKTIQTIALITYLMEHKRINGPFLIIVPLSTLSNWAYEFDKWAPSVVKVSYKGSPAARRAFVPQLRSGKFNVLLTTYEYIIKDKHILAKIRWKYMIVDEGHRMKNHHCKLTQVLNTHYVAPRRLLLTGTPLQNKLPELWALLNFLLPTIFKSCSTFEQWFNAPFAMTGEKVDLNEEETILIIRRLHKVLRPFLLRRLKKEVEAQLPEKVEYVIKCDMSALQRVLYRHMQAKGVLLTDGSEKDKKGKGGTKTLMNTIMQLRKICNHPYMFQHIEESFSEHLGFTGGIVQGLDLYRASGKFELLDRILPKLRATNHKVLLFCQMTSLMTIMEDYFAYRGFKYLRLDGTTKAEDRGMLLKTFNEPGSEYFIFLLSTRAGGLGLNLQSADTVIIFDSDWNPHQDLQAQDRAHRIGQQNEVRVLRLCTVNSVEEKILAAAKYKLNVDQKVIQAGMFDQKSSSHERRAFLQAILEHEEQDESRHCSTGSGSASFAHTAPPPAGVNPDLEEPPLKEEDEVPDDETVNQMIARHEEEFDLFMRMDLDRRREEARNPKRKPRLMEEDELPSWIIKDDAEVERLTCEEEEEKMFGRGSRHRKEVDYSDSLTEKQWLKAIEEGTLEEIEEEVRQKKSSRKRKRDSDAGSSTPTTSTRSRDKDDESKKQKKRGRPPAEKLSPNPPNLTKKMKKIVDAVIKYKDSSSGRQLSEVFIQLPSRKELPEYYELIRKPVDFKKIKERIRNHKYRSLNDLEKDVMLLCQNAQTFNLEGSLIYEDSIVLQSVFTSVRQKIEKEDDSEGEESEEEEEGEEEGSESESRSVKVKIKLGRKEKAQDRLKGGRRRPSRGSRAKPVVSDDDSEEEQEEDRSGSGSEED

`O=C1CCC(N2C(=O)c3cc(F)c(N4CCC(CN5CCC(CN6CCN7c8cc(-c9ccccc9O)nnc8NC[C@H]7C6)CC5)CC4)cc3C2=O)C(=O)N1` (stereo partly drawn) [Example 164, 2-(2,6-dioxopiperidin-3-yl)-5-fluoro-6-[4-[[4-[[(10S)-4-(2-hydroxyphenyl)-1,5,6,8,12-pentazatricyclo[8.4.0.02,7]tetradeca-2,4,6-trien-12-yl]methyl]piperidin-1-yl]methyl]piperidin-1-yl]isoindole-1,3-dione]: the DC50 in assay [1] and in assay [2] was under 10 nM throughout. Also, the Dmax in assay [1] was 75 to 85%; in assay [2], over 85%.

Take `CC1CN(CC2CCN(c3cc4c(cc3F)C(=O)N(C3CCC(=O)NC3=O)C4=O)CC2)CCC1CN1CCN2c3cc(-c4ccccc4O)nnc3NC[C@H]2C1` (stereo partly drawn) [Example 165, 2-(2,6-dioxopiperidin-3-yl)-5-fluoro-6-[4-[[4-[[(10S)-4-(2-hydroxyphenyl)-1,5,6,8,12-pentazatricyclo[8.4.0.02,7]tetradeca-2,4,6-trien-12-yl]methyl]-3-methylpiperidin-1-yl]methyl]piperidin-1-yl] isoindole-1,3-dione]: in assay [1], the DC50 is under 10 nM and the Dmax lay in the range of 75 to 85%. In assay [2], the DC50 was under 10 nM and the Dmax was in the range of 75 to 85%.

Turning to `CC1CC(CN2CCN3c4cc(-c5ccccc5O)nnc4NC[C@H]3C2)CCN1CC1CCN(c2cc3c(cc2F)C(=O)N(C2CCC(=O)NC2=O)C3=O)CC1` (stereo partly drawn) [Example 166, 2-(2,6-dioxopiperidin-3-yl)-5-fluoro-6-[4-[[4-[[(10S)-4-(2-hydroxyphenyl)-1,5,6,8,12-pentazatricyclo[8.4.0.02,7]tetradeca-2,4,6-trien-12-yl]methyl]-2-methylpiperidin-1-yl]methyl]piperidin-1-yl] isoindole-1,3-dione], in assay [1], the DC50 is under 10 nM and the Dmax was over 85%. In assay [2], the DC50 is under 10 nM and the Dmax is over 85%.

Consider `O=C1CCC(N2C(=O)c3ccc(N4CCC(CNC5CCC(CN6CCN7c8cc(-c9ccccc9O)nnc8NC[C@H]7C6)CC5)CC4)cc3C2=O)C(=O)N1` (stereo partly drawn) [Example 167, 2-(2,6-dioxopiperidin-3-yl)-5-[4-[[[4-[[(10S)-4-(2-hydroxyphenyl)-1,5,6,8,12-pentazatricyclo[8.4.0.02,7]tetradeca-2,4,6-trien-12-yl]methyl]cyclohexyl]amino]methyl]piperidin-1-yl] isoindole-1,3-dione], for which, in assay [1], the half-maximal degradation concentration (DC50) was under 10 nM and the Dmax was over 85%. For the same molecule, in assay [2], the DC50 is under 10 nM and the Dmax was over 85%.

Turning to `O=C1CCC(N2C(=O)c3ccc(N4CCN(CC5CCC(CN6CCN7c8cc(-c9ccccc9O)nnc8NC[C@H]7C6)CC5)CC4)cc3C2=O)C(=O)N1` (stereo partly drawn) [Example 168, 2-(2,6-dioxopiperidin-3-yl)-5-(4-((4-(((S)-2-(2-hydroxyphenyl)-5,6,6a,7,9,10-hexahydro-8H-pyrazino[1′,2′:4,5]pyrazino[2,3-c]pyridazin-8-yl)methyl)cyclohexyl)methyl)piperazin-1-yl)isoindoline-1,3-dione], in assay [1], the DC50 is under 10 nM and the Dmax lay within 75 to 85%. Further, in assay [2], the DC50 is under 10 nM and the Dmax is over 85%.

On to `O=C1CCC(N2C(=O)c3cc(F)c(N4CCC(CN5CC6CCC(C5)C6CN5CCN6c7cc(-c8ccccc8O)nnc7NC[C@H]6C5)CC4)cc3C2=O)C(=O)N1` (stereo partly drawn) [Example 169, 2-(2,6-dioxopiperidin-3-yl)-5-fluoro-6-[4-[[8-[[(10S)-4-(2-hydroxyphenyl)-1,5,6,8,12-pentazatricyclo[8.4.0.02,7]tetradeca-2,4,6-trien-12-yl]methyl]-3-azabicyclo[3.2.1]octan-3-yl]methyl]piperidin-1-yl]isoindole-1,3-dione], for which, in assay [1], the DC50 fell in the range of 10 to 100 nM and the Dmax fell in the range of 75 to 85%. In assay [2], the DC50 was under 10 nM and the Dmax lay in the range of 75 to 85%.

Regarding `CC1CN(c2ccc3c(c2)C(=O)N(C2CCC(=O)NC2=O)C3=O)CCC1CN1CCC(CN2CCN3c4cc(-c5ccccc5O)nnc4NC[C@H]3C2)CC1` (stereo partly drawn) [Example 170, 2-(2,6-dioxopiperidin-3-yl)-5-[4-[[4-[[(10S)-4-(2-hydroxyphenyl)-1,5,6,8,12-pentazatricyclo[8.4.0.02,7]tetradeca-2(7),3,5-trien-12-yl]methyl]piperidin-1-yl]methyl]-3-methylpiperidin-1-yl]isoindole-1,3-dione], in assay [1], the DC50 was under 10 nM and the Dmax was over 85%. Also, in assay [2], the DC50 was under 10 nM and the Dmax was over 85%.

For `O=C1CCC(N2C(=O)c3ccc(N4CCC(CN5CCC6(CN7CCN8c9cc(-c%10ccccc%10O)nnc9NC[C@H]8C7)CC6C5)CC4)cc3C2=O)C(=O)N1` (stereo partly drawn) [Example 171, 2-(2,6-dioxopiperidin-3-yl)-5-[4-[[6-[[(10S)-4-(2-hydroxyphenyl)-1,5,6,8,12-pentazatricyclo[8.4.0.02,7]tetradeca-2,4,6-trien-12-yl]methyl]-3-azabicyclo[4.1.0]heptan-3-yl]methyl]piperidin-1-yl]isoindole-1,3-dione], in assay [1], the DC50 is under 10 nM and the Dmax was over 85%. Further, in assay [2], the DC50 is under 10 nM and the Dmax is over 85%.

For `O=C1CCC(N2C(=O)c3ccc(N4CCC(CN5CC6CC6(CN6CCN7c8cc(-c9ccccc9O)nnc8NC[C@H]7C6)C5)CC4)cc3C2=O)C(=O)N1` (stereo partly drawn) [Example 172, 2-(2,6-dioxopiperidin-3-yl)-5-[4-[[1-[[(10S)-4-(2-hydroxyphenyl)-1,5,6,8,12-pentazatricyclo[8.4.0.02,7]tetradeca-2,4,6-trien-12-yl]methyl]-3-azabicyclo[3.1.0]hexan-3-yl]methyl]piperidin-1-yl]isoindole-1,3-dione], in assay [1], the DC50 is under 10 nM and the Dmax lay within 50 to 75%. Also, in assay [2], the DC50 was under 10 nM and the Dmax lay within 75 to 85%.

On to `O=C1CCC(N2C(=O)c3cc(F)c(N4CCC(CN5C[C@@H]6[C@H](C5)[C@H]6CN5CCN6c7cc(-c8ccccc8O)nnc7NC[C@H]6C5)CC4)cc3C2=O)C(=O)N1` (stereo partly drawn) [Example 173, 2-(2,6-dioxopiperidin-3-yl)-5-fluoro-6-[4-[[(1S,5R)-6-[[(10S)-4-(2-hydroxyphenyl)-1,5,6,8,12-pentazatricyclo[8.4.0.02,7]tetradeca-2,4,6-trien-12-yl]methyl]-3-azabicyclo[3.1.0]hexan-3-yl]methyl]piperidin-1-yl]isoindole-1,3-dione], for which the DC50 was 10 to 100 nM in assay [1] and under 10 nM in assay [2]. Also, the Dmax was in the range of 50 to 75% in assay [1] and 75 to 85% in assay [2].

Consider `C[C@@H]1C[C@H](CN2CCC(CN3CCN4c5cc(-c6ccccc6O)nnc5NC[C@H]4C3)CC2)CCN1c1cc2c(cc1F)C(=O)N(C1CCC(=O)NC1=O)C2=O` (stereo partly drawn) [Example 174, 2-(2,6-dioxopiperidin-3-yl)-5-fluoro-6-[(2R,4R)-4-[[4-[[(10S)-4-(2-hydroxyphenyl)-1,5,6,8,12-pentazatricyclo[8.4.0.02,7]tetradeca-2,4,6-trien-12-yl]methyl]piperidin-1-yl]methyl]-2-methylpiperidin-1-yl] isoindole-1,3-dione], for which, in assay [1], the DC50 is under 10 nM and the Dmax was over 85%. In assay [2], the DC50 was under 10 nM and the Dmax was over 85%.

For `O=C1CCC(N2C(=O)c3ccc(N4CCC(CN5CCC(F)(CN6CCN7c8cc(-c9ccccc9O)nnc8NC[C@H]7C6)CC5)CC4)cc3C2=O)C(=O)N1` (stereo partly drawn) [Example 175, 2-(2,6-dioxopiperidin-3-yl)-5-[4-[[4-fluoro-4-[[(10S)-4-(2-hydroxyphenyl)-1,5,6,8,12-pentazatricyclo[8.4.0.02,7]tetradeca-2,4,6-trien-12-yl]methyl]piperidin-1-yl]methyl]piperidin-1-yl]isoindole-1,3-dione], in assay [1], the DC50 was under 10 nM and the Dmax was over 85%. In assay [2], the DC50 was under 10 nM and the Dmax is over 85%.

As to `C[C@@H]1C[C@H](CN2C[C@@H]3[C@H](C2)[C@H]3CN2CCN3c4cc(-c5ccccc5O)nnc4NC[C@H]3C2)CCN1c1cc2c(cc1F)C(=O)N(C1CCC(=O)NC1=O)C2=O` (stereo partly drawn) [Example 176], the DC50 in assay [1] was 10 to 100 nM; in assay [2], under 10 nM. In addition, the Dmax is 50 to 75% in assay [1] and over 85% in assay [2].

On to `O=C1CCC(N2C(=O)c3ccc(N4CCC(CN5CC6CC(CN7CCN8c9cc(-c%10ccccc%10O)nnc9NC[C@H]8C7)C6C5)CC4)cc3C2=O)C(=O)N1` (stereo partly drawn) [Example 177, 2-(2,6-dioxopiperidin-3-yl)-5-[4-[[6-[[(10S)-4-(2-hydroxyphenyl)-1,5,6,8,12-pentazatricyclo[8.4.0.02,7]tetradeca-2,4,6-trien-12-yl]methyl]-3-azabicyclo[3.2.0]heptan-3-yl]methyl]piperidin-1-yl]isoindole-1,3-dione], for which, in assay [1], the DC50 was under 10 nM and the Dmax lay in the range of 50 to 75%. Besides, in assay [2], the DC50 is under 10 nM and the Dmax is over 85%.

On to `N#CC1(CN2CCN3c4cc(-c5ccccc5O)nnc4NC[C@H]3C2)CCN(CC2CCN(c3ccc4c(c3)C(=O)N(C3CCC(=O)NC3=O)C4=O)CC2)CC1` (stereo partly drawn) [Example 178, 1-[[1-[2-(2,6-dioxopiperidin-3-yl)-1,3-dioxoisoindol-5-yl]piperidin-4-yl]methyl]-4-[[(10S)-4-(2-hydroxyphenyl)-1,5,6,8,12-pentazatricyclo[8.4.0.02,7]tetradeca-2,4,6-trien-12-yl]methyl]piperidine-4-carbonitrile], for which, in assay [1], the DC50 is under 10 nM and the Dmax lay in the range of 75 to 85%. For the same molecule, in assay [2], the DC50 is under 10 nM and the Dmax is over 85%.

The record behind these values is US12448389B2, “BRM targeting compounds and associated methods of use” (Prelude Therapeutics Incorporated, priority 2020, dated 2025).
